# Read-outs that look alike come from different tables or passages of the source.
# Tests used:
# A2780 cells = experiment: Assay 2: In-Vitro Cell Proliferation Assay (A2780 cells, SRB readout, 72 hours); type: cell-based; conditions: A2780 cells, 72 hours, SRB, read-out: Cell Proliferation (IC50);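 also: viable cells counted via sulforhodamine B staining, absorbance at 570 nm, after 72 h exposure at 37 °C, DMSO 0.1% as control, media-only background subtracted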
# NAMPT = NAMPT (Homo sapiens (Human), UniProt P43490); experiment: Assay 1: Biochemical Inhibition Assay (NAMPT enzymatic reaction, NMN quantified by mass spectrometry); conditions: read-out: Biochemical (IC50);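 also: recombinant His-tagged human NAMPT preincubated with compound 15 min, then reacted 30 min at rt with 1 µM NAM, 100 µM PRPP, 2.5 mM ATP, NMN product read by RapidFire MS, normalized to L-Cystathionine internal standard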
# NAMPT, sequence (P43490 whole entry): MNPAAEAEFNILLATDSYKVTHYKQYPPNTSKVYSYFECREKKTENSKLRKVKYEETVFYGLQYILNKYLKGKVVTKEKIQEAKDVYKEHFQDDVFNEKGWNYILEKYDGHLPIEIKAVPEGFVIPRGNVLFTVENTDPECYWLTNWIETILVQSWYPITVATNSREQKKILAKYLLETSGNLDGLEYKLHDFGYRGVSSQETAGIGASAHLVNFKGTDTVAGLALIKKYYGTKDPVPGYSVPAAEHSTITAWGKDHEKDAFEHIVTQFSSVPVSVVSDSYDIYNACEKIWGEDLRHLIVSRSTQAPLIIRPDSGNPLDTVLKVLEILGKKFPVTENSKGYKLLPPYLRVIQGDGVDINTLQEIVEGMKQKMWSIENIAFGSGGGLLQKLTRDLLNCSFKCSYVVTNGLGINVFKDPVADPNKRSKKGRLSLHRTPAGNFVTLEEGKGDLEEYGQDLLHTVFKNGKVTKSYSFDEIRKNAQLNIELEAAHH
Compound,"IC50 (A2780 cells; Homo sapiens, A2780, 72 h) [nM]",IC50 (NAMPT) [nM],IC50 (A2780 cells) [nM]
"O=C(NCc1ccc(S(=O)(=O)N2CCOCC2)cc1)c1ccc2nccn2c1 [Example 10, Imidazo[1,2-a]pyridine-6-carboxylic acid 4-(morpholine-4-sulfonyl)-benzylamide]",14.8,25.1,–
"N#CC1CCN(S(=O)(=O)c2ccc(CNC(=O)c3cc4ccncc4o3)cc2)CC1 [Example 12, Furo[2,3-c]pyridine-2-carboxylic acid 4-(4-cyano-piperidine-1-sulfonyl)-benzylamide]",186,26.2,–
"CN1CCN(S(=O)(=O)c2ccc(CNC(=O)c3ccc4nccn4c3)cc2)CC1 [Example 17, Imidazo[1,2-a]pyridine-6-carboxylic acid 4-(4-methyl-piperazine-1-sulfonyl)-benzylamide]",53.4,101,–
"O=C(NCc1ccc(S(=O)(=O)N2CCN(CC(F)(F)F)CC2)cc1)c1ccc2nccn2c1 [Example 25, Imidazo[1,2-a]pyridine-6-carboxylic acid 4-[4-(2,2,2-trifluoro-ethyl)-piperazine-1-sulfonyl]-benzylamide]",10.5,24.2,–
"O=C(NCc1ccc(S(=O)(=O)N2CC3CCC(C2)O3)cc1)c1cnc2[nH]ncc2c1 [Example 27, 1H-Pyrazolo[3,4-b]pyridine-5-carboxylic acid 4-(8-oxa-3-aza-bicyclo[3.2.1]octane-3-sulfonyl)-benzylamide]",132,142,–
"O=C(NCc1ccc(S(=O)(=O)N2CCC(O)CC2)cc1)c1ccc2nccn2c1 [Example 28, Imidazo[1,2-a]pyridine-6-carboxylic acid 4-(4-hydroxy-piperidine-1-sulfonyl)-benzylamide]",27.6,23.5,–
"O=C(NCc1ccc(S(=O)(=O)N2CCC(O)CC2)cc1)c1cnc2[nH]ncc2c1 [Example 30, 1H-Pyrazolo[3,4-b]pyridine-5-carboxylic acid 4-(4-hydroxy-piperidine-1-sulfonyl)-benzylamide]",205,178,–
"O=C(NCc1ccc(S(=O)(=O)N2CCC(O)CC2)cc1)c1cc2cnccc2[nH]1 [Example 31, 1H-Pyrrolo[3,2-c]pyridine-2-carboxylic acid 4-(4-hydroxy-piperidine-1-sulfonyl)-benzylamide]",48.2,55,–
"O=C(NCc1ccc(S(=O)(=O)N2CCC(NCC(F)F)CC2)cc1)c1cnc2[nH]ncc2c1 [Example 37, 1H-Pyrazolo[3,4-b]pyridine-5-carboxylic acid 4-[4-(2,2-difluoro-ethylamino)-piperidine-1-sulfonyl]-benzylamide]",13.9,44.1,–
"O=C(NCc1ccc(S(=O)(=O)N2CCC(O)CC2)cc1)c1cc2ccncc2o1 [Example 38, Furo[2,3-c]pyridine-2-carboxylic acid 4-(4-hydroxy-piperidine-1-sulfonyl)-benzylamide]",62.1,26.5,–
"COCCNC1CCN(S(=O)(=O)c2ccc(CNC(=O)c3cnc4[nH]ncc4c3)cc2)CC1 [Example 39, 1H-Pyrazolo[3,4-b]pyridine-5-carboxylic acid 4-[4-(2-methoxy-ethylamino)-piperidine-1-sulfonyl]-benzylamide]",94.7,83.5,–
"N[C@H]1C[C@H]2CC[C@@H](C1)N2S(=O)(=O)c1ccc(CNC(=O)c2cc3ccncc3s2)cc1 [Example 44, Thieno[2,3-c]pyridine-2-carboxylic acid 4-((1R,3R,5S)-3-amino-8-aza-bicyclo[3.2.1]octane-8-sulfonyl)-benzylamide]",23.2,5.8,–
"C[C@@H]1CN(S(=O)(=O)c2ccc(CNC(=O)c3cc4ccncc4s3)cc2)C[C@H](C)N1 [Example 46, Thieno[2,3-c]pyridine-2-carboxylic acid 4-((3R,5S)-3,5-dimethyl-piperazine-1-sulfonyl)-benzylamide]",4.4,43.5,–
"O=C(NCc1ccc(S(=O)(=O)N2CCCCC2)cc1)c1ccn2nccc2c1 [Example 48, Pyrazolo[1,5-a]pyridine-5-carboxylic acid 4-(piperidine-1-sulfonyl)-benzylamide]",2000,46.1,–
"O=C(NCc1ccc(S(=O)(=O)N2CCC[C@@H](O)C2)cc1)c1cc2cnccc2[nH]1 [Example 50, 1H-Pyrrolo[3,2-c]pyridine-2-carboxylic acid 4-((R)-3-hydroxy-piperidine-1-sulfonyl)-benzylamide]",23.9,36.2,–
"O=C(NCc1ccc(S(=O)(=O)N2CCC[C@H](O)C2)cc1)c1cc2cnccc2[nH]1 [Example 52, 1H-Pyrrolo[3,2-c]pyridine-2-carboxylic acid 4-((S)-3-hydroxy-piperidine-1-sulfonyl)-benzylamide]",18.6,27.6,–
"N#CCCNC1CCN(S(=O)(=O)c2ccc(CNC(=O)c3cnc4[nH]ncc4c3)cc2)CC1 [Example 57, 1H-Pyrazolo[3,4-b]pyridine-5-carboxylic acid 4-[4-(2-cyano-ethylamino)-piperidine-1-sulfonyl]-benzylamide]",55.5,64.8,–
"O=C(NCc1ccc(S(=O)(=O)N2CCCCC2)cc1)c1ccn2nccc2n1 [Example 58, Pyrazolo[1,5-a]pyrimidine-5-carboxylic acid 4-(piperidine-1-sulfonyl)-benzylamide]",2000,240,–
"C[C@@H]1CN(S(=O)(=O)c2ccc(CNC(=O)c3ccc4nccn4c3)cc2)C[C@H](C)N1 [Example 60, cis-Imidazo[1,2-a]pyridine-6-carboxylic acid 4-((3R,5S)-3,5-dimethyl-piperazine-1-sulfonyl)-benzylamide]",15.2,29.4,–

# Now from value to compound:
"IC50 (A2780 cells; Homo sapiens, A2780, 72 h) [nM]",IC50 (NAMPT) [nM],IC50 (A2780 cells) [nM],Compound
33.8,12.6,–,N#CCC1CCN(S(=O)(=O)c2ccc(CNC(=O)c3cc4ccncc4o3)cc2)CC1 [Example 13]
624,6.8,–,"O=C(NCc1ccc(S(=O)(=O)N2CCOCC2)cc1)c1cnc2nccn2c1 [Example 15, Imidazo[1,2-a]pyrimidine-6-carboxylic acid 4-(morpholine-4-sulfonyl)-benzylamide]"
163,22,–,"O=C(NCc1ccc(S(=O)(=O)N2CCCCC2)cc1)c1ccc2nccn2n1 [Example 16, Imidazo[1,2-b]pyridazine-6-carboxylic acid 4-(piperidine-1-sulfonyl)-benzylamide]"
–,8.7,185,"O=C(NCc1ccc(S(=O)(=O)C2CCOCC2)cc1)c1cnc2nccn2c1 [Example 21, Imidazo[1,2-a]pyrimidine-6-carboxylic acid 4-(tetrahydro-pyran-4-sulfonyl)-benzylamide]"
135,4.6,–,"O=C(NCc1ccc(S(=O)(=O)N2CC3CCC(C2)O3)cc1)c1cnc2nccn2c1 [Example 26, Imidazo[1,2-a]pyrimidine-6-carboxylic acid 4-(8-oxa-3-aza-bicyclo[3.2.1]octane-3-sulfonyl)-benzylamide]"
545,7.5,–,"O=C(NCc1ccc(S(=O)(=O)N2CCC(O)CC2)cc1)c1cnc2nccn2c1 [Example 29, Imidazo[1,2-a]pyrimidine-6-carboxylic acid 4-(4-hydroxy-piperidine-1-sulfonyl)-benzylamide]"
46.3,11.3,–,"NC1CCN(S(=O)(=O)c2ccc(CNC(=O)c3cc4ccncc4s3)cc2)CC1 [Example 36, Thieno[2,3-c]pyridine-2-carboxylic acid 4-(4-amino-piperidine-1-sulfonyl)-benzylamide]"
6.9,17.1,–,"O=C(NCc1ccc(S(=O)(=O)N2CCN(C3CCCCC3)CC2)cc1)c1ccc2nccn2c1 [Example 40, Imidazo[1,2-a]pyridine-6-carboxylic acid 4-(4-cyclohexyl-piperazine-1-sulfonyl)-benzylamide]"
7.2,21.6,–,"CC(C)CN1CCN(S(=O)(=O)c2ccc(CNC(=O)c3ccc4nccn4c3)cc2)CC1 [Example 43, Imidazo[1,2-a]pyridine-6-carboxylic acid 4-(4-isobutyl-piperazine-1-sulfonyl)-benzylamide]"
1000,17.2,–,"O=C(NCc1ccc(S(=O)(=O)N2CCCCC2)cc1)c1ccc2ncnn2c1 [Example 45, [1,2,4]Triazolo[1,5-a]pyridine-6-carboxylic acid 4-(piperidine-1-sulfonyl)-benzylamide]"
–,22.2,39.7,"O=C(NCc1ccc(S(=O)(=O)N2CCC[C@H](O)C2)cc1)c1cc2ccncc2o1 [Example 51, Furo[2,3-c]pyridine-2-carboxylic acid 4-((S)-3-hydroxy-piperidine-1-sulfonyl)-benzylamide]"
22.6,16.9,–,"O=C(NCc1ccc(S(=O)(=O)N2CCC[C@@H](O)C2)cc1)c1ccc2nccn2c1 [Example 53, Imidazo[1,2-a]pyridine-6-carboxylic acid 4-((R)-3-hydroxy-piperidine-1-sulfonyl)-benzylamide]"
11.4,15.6,–,"O=C(NCc1ccc(S(=O)(=O)N2CCC[C@H](O)C2)cc1)c1ccc2nccn2c1 [Example 54, Imidazo[1,2-a]pyridine-6-carboxylic acid 4-((S)-3-hydroxy-piperidine-1-sulfonyl)-benzylamide]"
4.3,7.7,–,"CC(C)(C)OC(=O)NC1CCN(S(=O)(=O)c2ccc(CNC(=O)c3ccc4nccn4c3)cc2)CC1 [Example 55, [1-(4-{[(lmodazo[1,2-a]pyridine-6-carbonyl)-amino]-methyl}-benzenesulfonyl)-piperidin-4-yl]-carbamic acid tert-butyl ester]"
23.3,21.5,–,"C[C@@H]1CN(S(=O)(=O)c2ccc(CNC(=O)c3cc4ccncc4o3)cc2)C[C@H](C)N1 [Example 61, cis-Furo[2,3-c]pyridine-2-carboxylic acid 4-((3R,5S)-3,5-dimethyl-piperazine-1-sulfonyl)-benzylamide]"

# — patent publication US10696692B2, “Amido-benzyl sulfone and sulfoxide derivates” (Forma TM, LLC, priority 2012, dated 2020)
